Literature values as cited in PubChem BioAssay AID1259409 (Chemical Carcinogenesis Research Information System (CCRIS), 2018).

Tested on: rodent chemically induced tumor inhibition, incidence and multiplicity
Test: CCRIS tumor inhibitor studies
Conditions: Carcinogen: N-METHYL-N-NITROSOUREA, 684-93-5, Route [Inhibitor]: ORAL, Species: RAT, Promoter: NONE USED

CC1=C(/C=C/C(C)=C/C=C/C(C)=C/C(=O)Nc2ccc(O)cc2)C(C)(C)CCC1
tumour outcome (control, treated, inhibition, significance) (Dose [Inhibitor]: 0, 782 MG/KG OF GRAIN-BASED WAYNE DIET FOR DURATION OF STUDY BEGINNING 7 D POST CARCINOGEN DOSE (STUDY DURATION: 25 WK), Strain/Sex: F344/FEMALE, Target Tissue: Type of Lesion: MAMMARY GLAND: TUMOR, Dose [Carcinogen]: 45 MG/KG BW ONCE AT 50 D OF AGE): 9/25 (36%), 6/25 (24%), 33%, not significant | tumour outcome (control, treated, inhibition, significance) (Dose [Inhibitor]: 0, 782 MG/KG OF GRAIN-BASED WAYNE DIET FOR DURATION OF STUDY BEGINNING 7 D PRIOR TO CARCINOGEN DOSE (STUDY DURATION: 26, Strain/Sex: F344/FEMALE, Target Tissue: Type of Lesion: MAMMARY GLAND: TUMOR, Dose [Carcinogen]: 45 MG/KG BW ONCE AT 50 D OF AGE): 9/25 (36%), 5/25 (20%), 44%, not significant | tumour outcome (control, treated, inhibition, significance) (Dose [Inhibitor]: 0, 786 MG/KG IN DIET FOR 26 WK BEGINNING 4 WK POST CARCINOGEN DOSE (STUDY DURATION: 31 WK), Strain/Sex: SPRAGUE-DAWLEY/FEMALE, Target Tissue: Type of Lesion: MAMMARY GLAND: ADENOCARCINOMA, Dose [Carcinogen]: 50 MG/KG ONCE): 84%, 74%, 12%, not significant | tumour outcome (control, treated, inhibition, significance) (Dose [Inhibitor]: 0, 786 MG/KG IN DIET FOR 31 WK BEGINNING 1 WK PRIOR TO CARCINOGEN DOSE (STUDY DURATION: 31 WK), Strain/Sex: SPRAGUE-DAWLEY/FEMALE, Target Tissue: Type of Lesion: MAMMARY GLAND: ADENOCARCINOMA, Dose [Carcinogen]: 50 MG/KG ONCE): 84%, 71%, 15%, not significant | tumour outcome (control, treated, inhibition, significance) (Dose [Inhibitor]: 0, 1173 MG/KG DIET BEGINNING AFTER THE SURGICAL REMOVAL OF THE FIRST PALPABLE TUMOR (STUDY DURATION: LIFETIME), Strain/Sex: SPRAGUE-DAWLEY/FEMALE, Target Tissue: Type of Lesion: MAMMARY GLAND: TUMOR, Dose [Carcinogen]: 35 MG/KG ONCE AT 50 DAYS OF AGE): 93%, 88%, 5%, not calculated | tumour outcome (control, treated, inhibition, significance) (Dose [Inhibitor]: 1 MMOL/KG DIET DAILY STARTING 3 D AFTER LAST CARCINOGEN DOSE THROUGH END OF STUDY (STUDY DURATION: 129 D), Strain/Sex: SPRAGUE-DAWLEY/FEMALE, Target Tissue: Type of Lesion: MAMMARY GLAND: TUMOR, Dose [Carcinogen]: 50 MG/KG BW AT BOTH 50 AND 57 D OF AGE): 17/17 (100%), 12/15 (80%), 20%, not significant | tumour outcome (control, treated, inhibition, significance) (Dose [Inhibitor]: 1 MMOL/KG DIET DAILY STARTING 3 D AFTER LAST CARCINOGEN DOSE THROUGH END OF STUDY (STUDY DURATION: 182 D), Strain/Sex: SPRAGUE-DAWLEY/FEMALE, Target Tissue: Type of Lesion: MAMMARY GLAND: TUMOR, Dose [Carcinogen]: 15 MG/KG BW AT BOTH 50 AND 57 D OF AGE): 12/40 (30%), 12/40 (30%), 0%, not significant | tumour outcome (control, treated, inhibition, significance) (Dose [Inhibitor]: 2 MMOL/KG DIET DAILY FROM 2 D PRIOR THROUGH 12 WK AFTER CARCINOGEN DOSE FOLLOWED BY 16 WK OBSERVATION PERIOD (STUDY DURA, Strain/Sex: SPRAGUE-DAWLEY/FEMALE, Target Tissue: Type of Lesion: MAMMARY GLAND: TUMOR, Dose [Carcinogen]: 25 MG/KG BW ONCE): 18/21 (86%), 15/30 (50%), 42%, p 0.027 | tumour outcome (control, treated, inhibition, significance) (Dose [Inhibitor]: 2 MMOL/KG DIET DAILY FROM 2 D THROUGH 17 WK AFTER CARCINOGEN DOSE FOLLOWED BY 11 WK OBSERVATION PERIOD (STUDY DURATION:, Strain/Sex: SPRAGUE-DAWLEY/FEMALE, Target Tissue: Type of Lesion: MAMMARY GLAND: TUMOR, Dose [Carcinogen]: 25 MG/KG BW ONCE): 18/21 (86%), 18/30 (60%), 30%, not significant | tumour outcome (control, treated, inhibition, significance) (Dose [Inhibitor]: 2 MMOL/KG DIET DAILY STARTING 3 D AFTER LAST CARCINOGEN DOSE THROUGH END OF STUDY (STUDY DURATION: 129 D), Strain/Sex: SPRAGUE-DAWLEY/FEMALE, Target Tissue: Type of Lesion: MAMMARY GLAND: TUMOR, Dose [Carcinogen]: 50 MG/KG BW AT BOTH 50 AND 57 D OF AGE): 17/17 (100%), 11/17 (65%), 35%, p<0.01 | tumour outcome (control, treated, inhibition, significance) (Dose [Inhibitor]: 2 MMOL/KG DIET DAILY STARTING 3 D AFTER LAST CARCINOGEN DOSE THROUGH END OF STUDY (STUDY DURATION: 182 D), Strain/Sex: SPRAGUE-DAWLEY/FEMALE, Target Tissue: Type of Lesion: MAMMARY GLAND: TUMOR, Dose [Carcinogen]: 15 MG/KG BW AT BOTH 50 AND 57 D OF AGE): 12/40 (30%), 6/40 (15%), 50%, not significant | tumour outcome (control, treated, inhibition, significance) (Dose [Inhibitor]: 2 MMOL/KG DIET DAILY STARTING 12 D AFTER CARCINOGEN TREATMENT THROUGH ABOUT 8 MO AFTER CARCINOGEN DOSE (STUDY DURATION:, Strain/Sex: F344/MALE, Target Tissue: Type of Lesion: COLON: ADENOCARCINOMA, Dose [Carcinogen]: 2.5 MG 1/WK FOR 2 WK): 5/39 (13%), 3/30 (10%), 23%, not significant
